Reference: the kinase profiling compilation of Christmann-Franck et al. (2016)

What was measured:
Assay in all cases: KINOMEscan competition binding
Conditions in all cases: compound 10.0 µM
CDK13 (human) = CDK13 (human) (UniProt Q14004)
CDK4 CCND3 (human) = CDK4 CCND3 (human) (UniProt P11802+P30281)
CDKL3 (human) = CDKL3 (human) (UniProt Q8IVW4)
CRK2 (P.falciparum) = CRK2 (P.falciparum) (UniProt P61075)
CSNK1A1 (human) = CSNK1A1 (human) (UniProt P48729)
DDR1 (human) = DDR1 (human) (UniProt Q08345)
DSTYK (human) = DSTYK (human) (UniProt Q6XUX3)
DYRK2 (human) = DYRK2 (human) (UniProt Q92630)
EGFR (human) = EGFR (human) (UniProt P00533)
[1] = system: EGFR (human), P00533 [746-750 del]
[2] = system: EGFR (human), P00533 [G719S]
[3] = system: EGFR (human), P00533 [L861Q]
[4] = system: EGFR (human), P00533 [P753S; 747-752 del]
GRK1 (human) = GRK1 (human) (UniProt Q15835)
GRK7 (human) = GRK7 (human) (UniProt Q8WTQ7)
HIPK3 (human) = HIPK3 (human) (UniProt Q9H422)
[5] = system: KIT (human), P10721 [V559D/T670I]
MAK (human) = MAK (human) (UniProt P20794)
MAP2K7 (human) = MAP2K7 (human) (UniProt O14733)
MAP3K1 (human) = MAP3K1 (human) (UniProt Q13233)
MAP3K15 (human) = MAP3K15 (human) (UniProt Q6ZN16)
MAP3K2 (human) = MAP3K2 (human) (UniProt Q9Y2U5)
MAP3K6 (human) = MAP3K6 (human) (UniProt O95382)
MATK (human) = MATK (human) (UniProt P42679)
NEK11 (human) = NEK11 (human) (UniProt Q8NG66)
NEK4 (human) = NEK4 (human) (UniProt P51957)
OXSR1 (human) = OXSR1 (human) (UniProt O95747)
PIK3C2G (human) = PIK3C2G (human) (UniProt O75747)
PIK3CA (human) = PIK3CA (human) (UniProt P42336)
[6] = system: PIK3CA (human), P42336 [I800L]
PIP4K2C (human) = PIP4K2C (human) (UniProt Q8TBX8)
PIP5K1C (human) = PIP5K1C (human) (UniProt O60331)
PKN3 (M.tuberculosis) = PKN3 (M.tuberculosis) (UniProt Q6P5Z2)
PRPF4B (human) = PRPF4B (human) (UniProt Q13523)
SIK3 (human) = SIK3 (human) (UniProt Q9Y2K2)
SNRK (human) = SNRK (human) (UniProt Q9NRH2)
STK38 (human) = STK38 (human) (UniProt Q15208)
TBK1 (human) = TBK1 (human) (UniProt Q9UHD2)
TIE1 (human) = TIE1 (human) (UniProt P35590)
TRPM6 (human) = TRPM6 (human) (UniProt Q9BX84)

Chain of DSTYK (human) (Q6XUX3 whole entry, looked up): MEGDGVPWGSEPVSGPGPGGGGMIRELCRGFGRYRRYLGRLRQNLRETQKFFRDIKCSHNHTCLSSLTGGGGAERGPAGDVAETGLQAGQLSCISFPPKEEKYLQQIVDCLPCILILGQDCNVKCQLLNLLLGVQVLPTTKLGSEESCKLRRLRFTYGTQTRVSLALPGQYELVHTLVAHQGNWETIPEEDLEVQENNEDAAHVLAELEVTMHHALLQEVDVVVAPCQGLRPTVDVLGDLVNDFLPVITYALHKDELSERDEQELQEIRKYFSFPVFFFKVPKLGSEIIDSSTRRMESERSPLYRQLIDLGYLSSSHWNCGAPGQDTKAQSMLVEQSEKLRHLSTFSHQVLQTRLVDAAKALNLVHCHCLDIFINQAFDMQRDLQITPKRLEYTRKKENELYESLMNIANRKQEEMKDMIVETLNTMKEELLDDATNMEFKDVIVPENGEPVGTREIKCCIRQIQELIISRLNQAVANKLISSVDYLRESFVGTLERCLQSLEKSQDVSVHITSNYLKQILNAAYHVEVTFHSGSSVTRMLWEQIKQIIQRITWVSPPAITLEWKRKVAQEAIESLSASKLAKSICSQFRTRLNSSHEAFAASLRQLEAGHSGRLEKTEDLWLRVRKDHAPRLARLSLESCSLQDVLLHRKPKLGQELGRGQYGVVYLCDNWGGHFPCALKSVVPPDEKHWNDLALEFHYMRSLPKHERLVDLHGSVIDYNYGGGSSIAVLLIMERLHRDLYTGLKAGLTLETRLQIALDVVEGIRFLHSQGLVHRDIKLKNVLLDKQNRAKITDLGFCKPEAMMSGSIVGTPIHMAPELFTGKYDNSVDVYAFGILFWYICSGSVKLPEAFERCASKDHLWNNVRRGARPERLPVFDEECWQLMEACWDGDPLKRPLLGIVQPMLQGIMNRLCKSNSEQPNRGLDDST
Chain of GRK7 (human) (Q8WTQ7 whole entry, looked up): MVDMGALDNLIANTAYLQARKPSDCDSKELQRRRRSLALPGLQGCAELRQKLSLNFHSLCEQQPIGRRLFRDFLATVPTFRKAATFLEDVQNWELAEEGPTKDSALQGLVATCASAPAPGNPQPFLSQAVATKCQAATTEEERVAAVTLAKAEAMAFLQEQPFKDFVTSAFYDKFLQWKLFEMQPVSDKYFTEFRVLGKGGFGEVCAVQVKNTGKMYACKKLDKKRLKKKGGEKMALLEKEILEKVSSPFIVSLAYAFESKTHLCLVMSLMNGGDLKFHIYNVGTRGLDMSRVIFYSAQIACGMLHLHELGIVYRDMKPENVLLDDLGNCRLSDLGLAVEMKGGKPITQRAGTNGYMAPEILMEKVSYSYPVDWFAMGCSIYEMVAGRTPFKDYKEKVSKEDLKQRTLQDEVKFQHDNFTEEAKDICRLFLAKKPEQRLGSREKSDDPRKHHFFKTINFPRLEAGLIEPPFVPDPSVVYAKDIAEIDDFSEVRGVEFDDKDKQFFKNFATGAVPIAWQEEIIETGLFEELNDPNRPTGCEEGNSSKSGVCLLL
Chain of CDKL3 (human) (Q8IVW4 whole entry, looked up): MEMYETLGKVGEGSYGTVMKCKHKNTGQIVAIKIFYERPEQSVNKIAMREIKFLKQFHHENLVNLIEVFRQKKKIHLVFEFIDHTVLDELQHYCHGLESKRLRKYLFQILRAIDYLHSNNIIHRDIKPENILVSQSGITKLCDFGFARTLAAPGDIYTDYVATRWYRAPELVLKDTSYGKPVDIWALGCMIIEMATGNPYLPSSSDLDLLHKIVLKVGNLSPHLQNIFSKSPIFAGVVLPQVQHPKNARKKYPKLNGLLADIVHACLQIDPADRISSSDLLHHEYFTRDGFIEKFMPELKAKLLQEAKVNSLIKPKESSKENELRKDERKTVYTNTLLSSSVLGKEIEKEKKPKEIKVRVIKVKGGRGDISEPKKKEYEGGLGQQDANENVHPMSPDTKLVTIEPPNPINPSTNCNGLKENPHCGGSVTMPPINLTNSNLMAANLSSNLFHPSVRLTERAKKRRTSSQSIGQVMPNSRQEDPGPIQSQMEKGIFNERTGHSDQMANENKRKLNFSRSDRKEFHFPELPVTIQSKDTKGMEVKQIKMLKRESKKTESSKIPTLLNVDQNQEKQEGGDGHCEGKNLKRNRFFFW
Chain of NEK11 (human) (Q8NG66 whole entry, looked up): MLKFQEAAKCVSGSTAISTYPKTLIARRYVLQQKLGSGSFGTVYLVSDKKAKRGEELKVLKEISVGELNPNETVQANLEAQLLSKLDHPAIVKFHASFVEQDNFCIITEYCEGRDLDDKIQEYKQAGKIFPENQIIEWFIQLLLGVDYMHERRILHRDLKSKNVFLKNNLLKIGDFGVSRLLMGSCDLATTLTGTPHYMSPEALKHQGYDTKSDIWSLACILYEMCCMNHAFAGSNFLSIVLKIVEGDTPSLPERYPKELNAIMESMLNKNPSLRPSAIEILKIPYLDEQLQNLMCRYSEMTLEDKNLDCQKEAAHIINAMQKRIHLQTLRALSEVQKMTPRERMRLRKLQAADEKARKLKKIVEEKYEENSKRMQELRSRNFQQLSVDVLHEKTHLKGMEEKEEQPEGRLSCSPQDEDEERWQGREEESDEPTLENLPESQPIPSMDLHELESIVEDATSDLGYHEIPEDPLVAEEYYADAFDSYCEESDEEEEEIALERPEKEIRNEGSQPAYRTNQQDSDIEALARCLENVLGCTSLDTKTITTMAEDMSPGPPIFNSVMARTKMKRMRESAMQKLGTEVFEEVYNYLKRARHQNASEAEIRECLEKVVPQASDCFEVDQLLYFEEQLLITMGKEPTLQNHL
Chain of MAP3K6 (human) (O95382 whole entry, looked up): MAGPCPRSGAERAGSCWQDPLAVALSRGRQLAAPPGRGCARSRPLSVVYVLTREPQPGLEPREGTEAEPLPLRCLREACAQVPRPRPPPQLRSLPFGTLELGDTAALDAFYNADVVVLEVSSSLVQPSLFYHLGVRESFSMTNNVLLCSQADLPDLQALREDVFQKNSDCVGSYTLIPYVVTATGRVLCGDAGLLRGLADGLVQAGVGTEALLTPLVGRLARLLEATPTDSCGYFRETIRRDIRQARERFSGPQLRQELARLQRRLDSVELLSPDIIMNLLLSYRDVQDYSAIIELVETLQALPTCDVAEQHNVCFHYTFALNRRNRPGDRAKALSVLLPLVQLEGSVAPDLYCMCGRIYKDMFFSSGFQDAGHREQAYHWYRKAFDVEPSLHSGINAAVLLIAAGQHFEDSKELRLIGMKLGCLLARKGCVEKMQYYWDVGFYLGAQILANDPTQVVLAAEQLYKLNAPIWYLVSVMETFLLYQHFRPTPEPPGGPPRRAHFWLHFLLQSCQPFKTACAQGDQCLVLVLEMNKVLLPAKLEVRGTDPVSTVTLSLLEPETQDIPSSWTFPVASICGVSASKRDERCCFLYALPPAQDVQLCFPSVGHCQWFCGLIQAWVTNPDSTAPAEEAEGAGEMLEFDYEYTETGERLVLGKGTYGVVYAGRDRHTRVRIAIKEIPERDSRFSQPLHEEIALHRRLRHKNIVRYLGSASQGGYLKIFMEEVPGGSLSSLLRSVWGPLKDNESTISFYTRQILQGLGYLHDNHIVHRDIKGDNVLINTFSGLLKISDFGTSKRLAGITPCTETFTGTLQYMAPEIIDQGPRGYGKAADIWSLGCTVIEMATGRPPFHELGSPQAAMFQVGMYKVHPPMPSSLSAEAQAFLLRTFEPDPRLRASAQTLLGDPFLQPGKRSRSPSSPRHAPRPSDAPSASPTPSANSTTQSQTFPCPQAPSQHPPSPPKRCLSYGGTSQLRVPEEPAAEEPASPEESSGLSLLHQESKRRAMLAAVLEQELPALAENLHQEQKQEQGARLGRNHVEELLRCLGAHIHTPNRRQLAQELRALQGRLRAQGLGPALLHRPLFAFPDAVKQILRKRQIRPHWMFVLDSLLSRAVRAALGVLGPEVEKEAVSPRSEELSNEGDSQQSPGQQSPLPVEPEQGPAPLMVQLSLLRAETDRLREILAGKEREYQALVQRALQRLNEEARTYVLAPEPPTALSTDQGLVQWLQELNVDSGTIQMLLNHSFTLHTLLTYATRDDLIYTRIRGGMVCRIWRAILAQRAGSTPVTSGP
Chain of TBK1 (human) (Q9UHD2 whole entry, looked up): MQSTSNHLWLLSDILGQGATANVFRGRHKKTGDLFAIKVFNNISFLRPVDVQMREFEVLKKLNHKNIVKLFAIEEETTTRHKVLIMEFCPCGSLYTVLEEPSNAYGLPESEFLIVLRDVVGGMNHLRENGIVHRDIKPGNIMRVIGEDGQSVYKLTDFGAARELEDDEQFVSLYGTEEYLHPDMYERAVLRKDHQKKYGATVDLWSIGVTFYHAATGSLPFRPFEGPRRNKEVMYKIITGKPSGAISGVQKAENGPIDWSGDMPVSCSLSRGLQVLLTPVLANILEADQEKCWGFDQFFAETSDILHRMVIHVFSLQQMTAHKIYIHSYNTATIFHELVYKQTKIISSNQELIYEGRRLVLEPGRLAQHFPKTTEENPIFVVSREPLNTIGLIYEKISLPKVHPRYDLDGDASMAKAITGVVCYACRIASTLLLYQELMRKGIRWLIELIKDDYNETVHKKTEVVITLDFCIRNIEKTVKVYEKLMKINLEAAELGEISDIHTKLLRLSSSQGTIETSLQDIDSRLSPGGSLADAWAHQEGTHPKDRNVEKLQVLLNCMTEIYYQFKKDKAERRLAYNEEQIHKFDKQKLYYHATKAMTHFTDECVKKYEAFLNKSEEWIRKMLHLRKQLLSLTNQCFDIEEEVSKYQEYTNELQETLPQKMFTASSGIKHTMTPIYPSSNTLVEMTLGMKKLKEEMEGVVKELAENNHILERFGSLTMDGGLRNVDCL
Chain of CSNK1A1 (human) (P48729 whole entry, looked up): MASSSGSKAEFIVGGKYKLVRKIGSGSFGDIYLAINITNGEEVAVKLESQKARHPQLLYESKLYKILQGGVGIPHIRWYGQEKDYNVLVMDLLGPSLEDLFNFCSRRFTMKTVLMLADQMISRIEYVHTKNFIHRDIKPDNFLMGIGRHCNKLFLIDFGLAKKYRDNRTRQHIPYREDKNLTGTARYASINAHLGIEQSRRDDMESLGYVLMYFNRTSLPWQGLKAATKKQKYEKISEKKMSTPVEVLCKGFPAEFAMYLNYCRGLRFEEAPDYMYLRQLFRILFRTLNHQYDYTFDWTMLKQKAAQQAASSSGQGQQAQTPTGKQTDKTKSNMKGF

Compound	kinase still bound, per cent of control (CDK13 (human)) [%]	kinase still bound, per cent of control (CDK4 CCND3 (human)) [%]	kinase still bound, per cent of control (CDKL3 (human)) [%]	kinase still bound, per cent of control (CRK2 (P.falciparum)) [%]	kinase still bound, per cent of control (CSNK1A1 (human)) [%]	kinase still bound, per cent of control (DDR1 (human)) [%]	kinase still bound, per cent of control (DSTYK (human)) [%]	kinase still bound, per cent of control (DYRK2 (human)) [%]	kinase still bound, per cent of control (EGFR (human)) [%]	kinase still bound, per cent of control [1] [%]	kinase still bound, per cent of control [2] [%]	kinase still bound, per cent of control [3] [%]	kinase still bound, per cent of control [4] [%]	kinase still bound, per cent of control (GRK1 (human)) [%]	kinase still bound, per cent of control (GRK7 (human)) [%]	kinase still bound, per cent of control (HIPK3 (human)) [%]	kinase still bound, per cent of control [5] [%]	kinase still bound, per cent of control (MAK (human)) [%]	kinase still bound, per cent of control (MAP2K7 (human)) [%]	kinase still bound, per cent of control (MAP3K1 (human)) [%]	other results
O=C(NC1CC1)c1cccc(-c2ccc3c(NC(=O)C4CC4)n[nH]c3c2)c1	82	82	55	100	100	71	71	36	96	90	85	69	96	100	84	62	43	51	100	100	kinase still bound, per cent of control (MAP3K15 (human)): 100%; kinase still bound, per cent of control (MAP3K2 (human)): 63%; kinase still bound, per cent of control (MAP3K6 (human)): 86%; kinase still bound, per cent of control (MATK (human)): 68%; kinase still bound, per cent of control (NEK11 (human)): 95%; kinase still bound, per cent of control (NEK4 (human)): 100%; kinase still bound, per cent of control (OXSR1 (human)): 98%; kinase still bound, per cent of control (PIK3C2G (human)): 100%; kinase still bound, per cent of control (PIK3CA (human)): 99%; kinase still bound, per cent of control [6]: 100%; kinase still bound, per cent of control (PIP4K2C (human)): 95%; kinase still bound, per cent of control (PIP5K1C (human)): 12%; kinase still bound, per cent of control (PKN3 (M.tuberculosis)): 15%; kinase still bound, per cent of control (PRPF4B (human)): 53%; kinase still bound, per cent of control (SIK3 (human)): 100%; kinase still bound, per cent of control (SNRK (human)): 100%; kinase still bound, per cent of control (STK38 (human)): 85%; kinase still bound, per cent of control (TBK1 (human)): 61%; kinase still bound, per cent of control (TIE1 (human)): 31%; kinase still bound, per cent of control (TRPM6 (human)): 100%
C=CC(=O)Nc1cccc(Nc2nc(N[C@H]3CC[C@H](N(C)C)CC3)nc3c2ncn3C(C)C)c1	40	23	100	100	0.65	100	86	58	100	88	98	100	90	47	8.7	26	86	100	100	100	kinase still bound, per cent of control (MAP3K15 (human)): 66%; kinase still bound, per cent of control (MAP3K2 (human)): 0.2%; kinase still bound, per cent of control (MAP3K6 (human)): 86%; kinase still bound, per cent of control (MATK (human)): 40%; kinase still bound, per cent of control (NEK11 (human)): 54%; kinase still bound, per cent of control (NEK4 (human)): 100%; kinase still bound, per cent of control (OXSR1 (human)): 33%; kinase still bound, per cent of control (PIK3C2G (human)): 100%; kinase still bound, per cent of control (PIK3CA (human)): 100%; kinase still bound, per cent of control [6]: 100%; kinase still bound, per cent of control (PIP4K2C (human)): 66%; kinase still bound, per cent of control (PIP5K1C (human)): 100%; kinase still bound, per cent of control (PKN3 (M.tuberculosis)): 82%; kinase still bound, per cent of control (PRPF4B (human)): 90%; kinase still bound, per cent of control (SIK3 (human)): 92%; kinase still bound, per cent of control (SNRK (human)): 68%; kinase still bound, per cent of control (STK38 (human)): 19%; kinase still bound, per cent of control (TBK1 (human)): 84%; kinase still bound, per cent of control (TIE1 (human)): 86%; kinase still bound, per cent of control (TRPM6 (human)): 66%
CCN1CCN(Cc2ccc(Nc3ncc4c(n3)N(C)c3ccccc3C(=O)N4C)cc2C(F)(F)F)CC1	100	100	100	100	16	14	7.1	97	73	74	99	98	79	78	73	76	74	100	100	55	kinase still bound, per cent of control (MAP3K15 (human)): 74%; kinase still bound, per cent of control (MAP3K2 (human)): 0.55%; kinase still bound, per cent of control (MAP3K6 (human)): 100%; kinase still bound, per cent of control (MATK (human)): 94%; kinase still bound, per cent of control (NEK11 (human)): 100%; kinase still bound, per cent of control (NEK4 (human)): 80%; kinase still bound, per cent of control (OXSR1 (human)): 59%; kinase still bound, per cent of control (PIK3C2G (human)): 17%; kinase still bound, per cent of control (PIK3CA (human)): 25%; kinase still bound, per cent of control [6]: 12%; kinase still bound, per cent of control (PIP4K2C (human)): 3.6%; kinase still bound, per cent of control (PIP5K1C (human)): 24%; kinase still bound, per cent of control (PKN3 (M.tuberculosis)): 22%; kinase still bound, per cent of control (PRPF4B (human)): 76%; kinase still bound, per cent of control (SIK3 (human)): 74%; kinase still bound, per cent of control (SNRK (human)): 88%; kinase still bound, per cent of control (STK38 (human)): 95%; kinase still bound, per cent of control (TBK1 (human)): 60%; kinase still bound, per cent of control (TIE1 (human)): 22%; kinase still bound, per cent of control (TRPM6 (human)): 100%
